The values below come from ChEMBL document CHEMBL5634205, “Pyrazolopyridine-based kinase inhibitors for anti-cancer targeted therapy” (RSC Med Chem, 2024).

This assay has as its target T1, Tyrosine-protein kinase receptor TYRO3 (Homo sapiens, UniProt Q06418).
T1 sequence (Q06418 whole entry): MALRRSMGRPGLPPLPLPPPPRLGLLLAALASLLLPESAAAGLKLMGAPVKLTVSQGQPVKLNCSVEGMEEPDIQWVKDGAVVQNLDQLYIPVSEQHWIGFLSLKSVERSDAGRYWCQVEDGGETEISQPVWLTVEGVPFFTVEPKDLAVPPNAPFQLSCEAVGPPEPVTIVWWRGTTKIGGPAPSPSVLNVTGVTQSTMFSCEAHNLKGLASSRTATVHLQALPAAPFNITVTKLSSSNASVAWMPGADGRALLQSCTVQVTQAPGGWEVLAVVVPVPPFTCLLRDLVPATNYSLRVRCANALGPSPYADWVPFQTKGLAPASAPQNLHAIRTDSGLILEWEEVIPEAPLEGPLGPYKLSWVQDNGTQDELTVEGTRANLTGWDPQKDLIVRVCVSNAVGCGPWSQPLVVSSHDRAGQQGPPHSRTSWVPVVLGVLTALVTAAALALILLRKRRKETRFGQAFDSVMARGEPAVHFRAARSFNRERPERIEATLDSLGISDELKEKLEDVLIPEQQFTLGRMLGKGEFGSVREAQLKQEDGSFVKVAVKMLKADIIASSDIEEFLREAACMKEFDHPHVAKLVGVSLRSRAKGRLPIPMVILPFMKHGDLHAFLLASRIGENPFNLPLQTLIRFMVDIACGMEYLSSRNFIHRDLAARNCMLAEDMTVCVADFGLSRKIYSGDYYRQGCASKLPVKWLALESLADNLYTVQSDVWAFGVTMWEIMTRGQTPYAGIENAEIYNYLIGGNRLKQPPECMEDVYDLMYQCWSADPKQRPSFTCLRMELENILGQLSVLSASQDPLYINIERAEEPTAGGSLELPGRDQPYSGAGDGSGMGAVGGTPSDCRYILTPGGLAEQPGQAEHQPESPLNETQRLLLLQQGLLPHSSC
Briefly: Inhibition of SKY (unknown origin).

The term IC50 denotes the midpoint of a concentration-inhibition curve. For `CN1C(=O)CCc2cc(NC(=O)c3n[nH]c4ccccc34)ccc21`, the half-inhibitory concentration (IC50) was found to be 3.2 nM.
To `O=C(O)c1cccc(C(=O)Nc2n[nH]c3ncc(-c4ccc(F)cc4)cc23)c1` belongs 1.2 nM.
